Test systems include DLD-1; HOP-18; SNB-78; LXFL 529; Hs-578T; BT-549; RXF 631; DU-145; MDA-MB-231.
Test in all cases: DTP human tumour cell line panel, 48 h

Molecules are shown by their SMILES.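 Cells were grown in 96-well plates and exposed to each compound for 48 hours at five concentrations; endpoints were interpolated linearly between bracketing concentrations, or set to the highest concentration if not reached. Abbreviation: GI50, concentration required for 50% inhibition of growth.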 Calls of active or inactive are those of the source. No stated cut-off is given here; in the data, active = GI50 up to about 1.1 µM and inactive = higher.

What is called GI50 is the concentration giving 50% growth inhibition. As for `CC(C)=CCC/C(C)=C/C=C/C(C)=C/C1C[C@@]2(C(O)O1)[C@H](CCCO)/C(=C(/C)C=O)CC[C@]2(C)O` (some centres not stated), the GI50 with DLD-1 is 16.4 µM (inactive); in the experiment with HOP-18, 19.1 µM (inactive); in the experiment with SNB-78, 20.5 µM (inactive).

As for `CC1CC[P+](c2ccccc2)(c2ccccc2)c2c1ccc1ccccc21` (configuration not stated), the GI50 is 3.74 µM (inactive) in the experiment on DLD-1; 0.83 µM (active) in the experiment with LXFL 529; 1.46 µM (inactive) in the experiment with Hs-578T; 2.52 µM (inactive) with HOP-18; 0.764 µM (active) in the experiment with BT-549; 2.67 µM (inactive) with SNB-78.

For the molecule `O=C1CCC23CC(C=CC=C12)n1c(=O)n(-c2ccccc2)c(=O)n13` (configuration not stated), the values for the GI50 with DLD-1, with HOP-18 and in the experiment with SNB-78 were 66.2 µM (inactive), > 100 µM (inactive) and > 59.2 µM (inactive), respectively.

Consider `Cc1ccc(NC(=O)OCC(COc2ccc(Cl)cc2)OC(=O)Nc2ccc(C)cc2)cc1` (configuration not stated), for which the GI50 in the experiment on DLD-1 is 30.5 µM (inactive); with LXFL 529 it was 23.4 µM (inactive); with HOP-18, > 100 µM (inactive); in the experiment with RXF 631, 11.5 µM (inactive); in the experiment with SNB-78 it was 23.2 µM (inactive).

`CCCCCCCCCCCCCC(=O)OC1C(O)C(CO)OC(OC)C1NC(=O)N(CCCl)N=O` (configuration not stated): the GI50 with DLD-1, with LXFL 529 and in the experiment on HOP-18 was > 100 µM (inactive) in each case.

Regarding `Cc1cn([C@@H]2C[C@](C)(CO)N(C)O2)c(=O)[nH]c1=O`, the GI50 with DU-145, in the experiment with Hs-578T, in the experiment on BT-549 and in the experiment on MDA-MB-231 was > 100 µM (inactive) throughout.

For `COc1cc(/C=C2\CCC(C)/C(=C\c3cc(OC)c(OC)c(OC)c3)C2=O)cc(OC)c1OC` (configuration not stated), the GI50 was 7.66 µM (inactive) in the experiment on DU-145, 8.81 µM (inactive) in the experiment on Hs-578T, 1.02 µM (active) in the experiment on BT-549 and 8.41 µM (inactive) in the experiment with MDA-MB-231.

Consider `N=S(=O)(c1ccccc1)c1ccccc1[N+](=O)[O-]` (configuration not stated), for which the GI50 in the experiment with DLD-1, with LXFL 529, in the experiment with HOP-18, in the experiment with RXF 631 and in the experiment on SNB-78 was > 100 µM (inactive) in each case.

`CNC(=S)Nc1sc2c(c1C#N)CCCC2`: the GI50 in the experiment with DU-145, in the experiment on Hs-578T, in the experiment on BT-549 and with MDA-MB-231 was > 75 µM (inactive) in each case.

With `CCCCN(CCCC)CC(=O)c1ccc2cc(Cl)c3ccccc3c2c1`, the GI50 is > 100 µM (inactive) in the experiment on DU-145, 35.7 µM (inactive) with Hs-578T, 19.1 µM (inactive) in the experiment on BT-549 and 31.4 µM (inactive) with MDA-MB-231.

As to `CN1CN(c2ccccc2)C2(CCNCC2)C1=O`, the GI50 in the experiment with DU-145, in the experiment on Hs-578T, with BT-549 and with MDA-MB-231 was > 100 µM (inactive) in each case.

As to `COc1ccccc1/C=C(\C#N)c1ccccc1`, the GI50 is 28.1 µM (inactive) in the experiment with DLD-1, 36.1 µM (inactive) in the experiment with LXFL 529, 38.5 µM (inactive) in the experiment on HOP-18 and 31.2 µM (inactive) in the experiment with SNB-78.

For the molecule `C1CSCCSCSCCS1`, the GI50 with DU-145, in the experiment on Hs-578T, with BT-549 and in the experiment on MDA-MB-231 was > 100 µM (inactive) each time.

As to `COc1cc(C2c3c(ccc4ccccc34)C(=O)C3CCC(=O)N32)cc(OC)c1OC` (configuration not stated), the GI50 with DU-145, in the experiment on Hs-578T, in the experiment on BT-549 and in the experiment on MDA-MB-231 was > 50 µM (inactive) in each case.

`Cn1c(=O)c(-c2ccccc2)c(N=[N+]=[N-])c2ccccc21`: the GI50 in the experiment on DU-145 is > 100 µM (inactive); in the experiment on Hs-578T, 37.7 µM (inactive); with BT-549, 44.2 µM (inactive); with MDA-MB-231, 49.5 µM (inactive).

On to `CCCCNC(=O)N/C=C1\C(=O)Oc2ccccc2C1=O`, for which the GI50 is 47.8 µM (inactive) in the experiment on LXFL 529 and 19.9 µM (inactive) in the experiment with SNB-78.

Take `c1cncc(O[Si](Oc2cccnc2)(Oc2cccnc2)Oc2cccnc2)c1`: the GI50 in the experiment on DLD-1, with HOP-18, with RXF 631 and in the experiment with SNB-78 was > 100 µM (inactive) each time.

With `C[C@@H]1CC[C@H]2[C@H]1[C@H]1[C@@H](CC[C@]2(C)N=C=S)C1(C)C`, the GI50 was 23.4 µM (inactive) with DU-145, 48.1 µM (inactive) in the experiment on Hs-578T, 18.7 µM (inactive) in the experiment on BT-549 and 30.1 µM (inactive) in the experiment with MDA-MB-231.

On to `CC(O)C(CO)NC(=O)C1CSSCC(NC(=O)C(N)Cc2ccccc2)C(=O)NC(Cc2ccccc2)C(=O)NC(Cc2c[nH]c3ccccc23)C(=O)NC(CCCCN)C(=O)NC(C(C)O)C(=O)N1` (configuration not stated), for which the GI50 in the experiment on DU-145 and with MDA-MB-231 was > 100 µM (inactive) in each case.

For the molecule `C#Cc1cccc(N2C(=O)c3c(c(-c4ccccc4)c(-c4ccc(Cc5ccc(-c6c(-c7ccccc7)c7c(c(-c8ccccc8)c6-c6ccccc6)C(=O)N(c6cccc(C#C)c6)C7=O)cc5)cc4)c(-c4ccccc4)c3-c3ccccc3)C2=O)c1`, the GI50 with DLD-1 was 32.9 µM (inactive); in the experiment on LXFL 529, 14.9 µM (inactive); with SNB-78 it was 47.4 µM (inactive).

As to `O=C(CC1(O)C(=O)Nc2c(Cl)cc(Cl)cc21)c1ccc([N+](=O)[O-])cc1` (configuration not stated), the GI50 in the experiment on DLD-1 is > 43.4 µM (inactive); in the experiment on LXFL 529 it was 25.6 µM (inactive); with HOP-18, > 100 µM (inactive); in the experiment on SNB-78, > 47.8 µM (inactive).

For the molecule `N#C[C@H](OC1OC(COC2OC(CO)C(O)C(O)C2O)C(O)C(O)C1O)c1ccccc1` (some centres not stated), the GI50 with DLD-1 is > 250 µM (inactive); with HOP-18, > 250 µM (inactive); in the experiment with SNB-78, 228 µM (inactive).

As for `SC1=Nc2ccccc2-c2nc(-c3ccccc3)cc(-c3ccc(Br)cc3)c2C1`, the GI50 was 3.48 µM (inactive) in the experiment on DU-145, 0.891 µM (active) in the experiment with Hs-578T, 5.53 µM (inactive) in the experiment with BT-549 and 1.44 µM (inactive) in the experiment with MDA-MB-231.

The values are drawn from ChEMBL document CHEMBL1201862, “PubChem BioAssay data set” (2004).
